Data published in article PMC6757420, “Identifying the active components of Baihe–Zhimu decoction that ameliorate depressive disease by an effective integrated strategy: a systemic pharmacokinetics study combined with classical depression model tests” (Chinese Medicine, 2019).
Structures can show the parent of a compound that is named as a salt. Where two headings read alike, the source gives them in different places.

Key:
[1] = pharmacokinetic study of five major components after oral administration of BZD (HPLC-QQQ MS); format: in vivo, Sprague–Dawley (SD) rats; conditions: rats, oral BZD 15 g/kg; for half-life / AUC(0-t) / Cmax / Tmax: Sprague-Dawley, rat, po, 15 g/kg, n = 5; for AUC(0-t): read-out: AUC0–t; for Cmax: read-out: Cmax; for Tmax: read-out: Tmax; for ER (liver extraction ratio): from portal vein plasma and systemic plasma
Method: The HPLC-QQQ MS method was developed according to a previous study in our group. Briefly, five compounds were simultaneously determined in plasma, liver and brain samples using a 1260 Series liquid chromatography system (Agilent Technologies, Palo Alto, CA, USA) coupled to a 6460 triple quadrupole mass spectrometer with an electrospray ionization source (Agilent Technologies, Palo Alto, CA, USA). Chromatographic separation was performed on an ACE Super C18 column (100 mm × 2.1 mm, 3.0 µm, Advanced Chromatography Technologies Ltd. Aberdeen, Scotland) at a temperature of 40 °C. The mobile phase consisted of water containing 0.1% formic acid (A) and acetonitrile containing 0.1% formic acid (B). The gradient program was performed as follows: 0–3 min, 92% A; 3.5–4.0 min, 88–60% A; 5.5–6 min, 60–55% A; 6.6–7 min, 55–5% A; 11–11.01 min, 5–92% A; 11.01–13.5 min, 92% A. The flow rate was set to 0.35 mL/min in the time range of 0–6.6 min and kept at 0.45 mL/min between 7 and 13.5 min. Five components were monitored in negative multiple reaction monitoring (MRM) mode. The parameters of the mass spectrometer were as follows: capillary voltage, 3500 V; nebulizer, 45 psi; gas temperature, 350 °C; gas flow rate, 12 L/min; sheath gas temperature, 400 °C; sheath gas flow rate, 8 L/min. MassHunter Workstation software (Agilent Technologies, Palo Alto, CA, USA) was used for system operation and data analysis.
All Sprague–Dawley (SD) rats and ICR mice were purchased from Shanghai SLAC Laboratory Animal Co., Ltd. and kept in the breeding room at 22 ± 2 °C and 50 ± 10% humidity in Shanghai Institute of Materia Medica (SIMM). The experimental protocols were approved by the Institutional Animal Care and Use Committee in SIMM. After 1 week of acclimation, all the SD rats were orally administered BZD (15 g/kg). The biological samples were collected from the rats after fasting for 12 h. After anaesthetization, the rats were dissected at 5 min, 15 min, 30 min, 1 h, 2 h, 4 h, 7 h, 10 h, 20 h and 40 h (n = 5 for each time-point). The hepatic portal vein plasma (2 mL) and the systemic plasma (6–8 mL) were subsequently harvested, and finally the liver and brain tissue samples were collected. The plasma sample were centrifuged at 9500×g for 5 min, and the tissue samples were washed with saline solution. All samples were stored at − 80 °C until analysis. The samples were prepared according to the method described in the previous study by our group.
A noncompartmental analysis was carried out using WinNonlin software (Pharsight 6.2, NC, USA) to calculate the PK parameters. The significance of the results in behavior assessment was analyzed by unpaired Student’s t-tests. A P value less than 0.05 was considered significant. The liver extraction ratio (ER) indicated the fraction of hepatic clearance and first-pass effect, and the calculation formula was as reported in a previous study by our group.

ICR mice [2] = experiment: forced swimming test (FST); format: in vivo
Method: (§1) The antidepressant activity of the drugs was evaluated by classic behavioral measurements, such as the forced swimming test (FST) and tail suspension test (TST). All the ICR mice were randomly divided into several groups (n = 8) as follows: a control group with stimulation and different test groups subjected to FST and TST after the oral administration of different drugs for 8 days, including fluoxetine (10 mg/kg), BZD (3 g/kg), ZD (3 g/kg), Baihe decoction (BD, 3 g/kg), PZ (21.2 mg/kg), XZ (21.2 mg/kg), SZ (21.2 mg/kg), timosaponin BII (10 mg/kg) and timosaponin BIII (10 mg/kg).
(§2) The FST was performed according to a previously described method with minor modifications. Briefly, each mouse was individually placed in an open water-filled cylinder (H: 50 cm; Ø: 20 cm; water depth: 35 cm; temperature: 23–25 °C) and allowed to swim for a period of 6 min. The total time of immobility was recorded during the last 4 min of the testing duration. Immobility is defined as the mice floating in the water without movement. The TST was conducted as described in the literature. Briefly, the mice were suspended 20 cm above the floor for 6 min. The time of immobility was recorded after the first 2 min. Mice in a completely motionless state were considered immobile.

ICR mice [3] = experiment: tail suspension test (TST); format: in vivo
Method: as §1, §2

dopamine (DA) = experiment: content of dopamine (DA) by ELISA kit; format: in vivo, ICR mice; conditions: Table 5; 10 mg/kg oral; control 171.6 ± 54.5
Method: as §1
(§3) The contents of dopamine (DA) and serotonin (5-HT) in the plasma were determined using ELISA Kits (Shanghai Jianglai Biotech Co., Ltd., Shanghai, China) according to the manufacturer’s instructions.

serotonin (5-HT) = experiment: content of serotonin (5-HT) by ELISA kit; format: in vivo, ICR mice; conditions: Table 5; 10 mg/kg oral; control 636.2 ± 80.1
Method: as §1, §3

depressive rats = conditions: depressive rats; likely related to the content of 5-HT in the brain; cited from earlier work
[4] = hepatic portal vein plasma, portal vein plasma
[5] = systemic plasma, systemic plasma
[6] = Table 4, oral administration for 8 days, n = 8, 10 mg/kg, control 118.1 ± 24.3
[7] = Table 4, oral administration for 8 days, n = 8, 10 mg/kg, control 102.0 ± 16.9

| SMILES | half-life [1, 4] [h] | AUC(0-t) [1, 4] [µg·h/mL] | Cmax [1, 4] [µg/mL] | Tmax [1, 4] [h] | Cmax ([1]; liver, liver) [ng/g] | Tmax ([1]; liver, liver) [h] | half-life ([1]; liver) [h] | AUC(0-t) [1, 5] [µg·h/mL] | Cmax [1, 5] [µg/mL] | Tmax [1, 5] [h] | half-life ([1]; systemic plasma) [h] | ER (liver extraction ratio) [1] [%] | Immobility time (mean ± SD, s) FST (ICR mice [2]; [6]) [s] | Immobility time (mean ± SD, s) TST (ICR mice [3]; [7]) [s] | Content (ng/g) DA (dopamine (DA)) [ng/g] | Content (ng/g) 5-HT (serotonin (5-HT)) [ng/g] | also measured |
| --- | --- | --- | --- | --- | --- | --- | --- | --- | --- | --- | --- | --- | --- | --- | --- | --- | --- |
| C[C@H]1CC[C@@]2(OC1)O[C@H]1C[C@H]3[C@@H]4CC[C@@H]5C[C@@H](O[C@@H]6O[C@H](CO)[C@H](O)[C@H](O)[C@H]6O[C@@H]6O[C@H](CO)[C@@H](O)[C@H](O)[C@H]6O)CC[C@]5(C)[C@H]4CC[C@]3(C)[C@H]1[C@@H]2C [Timosaponin AIII, timosaponin AIII] | 10.3 | 0.583 ± 0.105 | 0.0618 ± 0.0256 | 4 | 9360 ± 244 | 20 | 12.2 | 0.156 ± 0.0216 | 0.016 ± 0.00516 | 4 | 11.2 | 73.20 | – | – | – | – | ER (liver extraction ratio) ([1]; listed as timosaponin AIII): 73.21% |
| CNCCC(Oc1ccc(C(F)(F)F)cc1)c1ccccc1 (stereo not drawn) [Fluoxetine, fluoxetine hydrochloride] | – | – | – | – | – | – | – | – | – | – | – | – | 70.2 ± 21.2 | 50.0 ± 22.2 | 215.9 ± 36.5 | 731.3 ± 104.6 | Immobility time (mean ± SD, s) FST (ICR mice [2]; Table 1, oral administration for 8 days, n = 8, fluoxetine 10 mg/kg, BZD, ZD, BD 3 g/kg, control 127.6 ± 40.9): 84.8 ± 15.2 s; Immobility time (mean ± SD, s) FST (ICR mice [2]; Table 2, oral administration for 8 days, n = 8, fluoxetine 10 mg/kg, SZ, PZ, XZ 21.2 mg/kg, control 134.3 ± 22.1): 82.0 ± 21.3 s; Immobility time (mean ± SD, s) TST (ICR mice [3]; Table 1, oral administration for 8 days, n = 8, fluoxetine 10 mg/kg, BZD, ZD, BD 3 g/kg, control 109.1 ± 15.5): 62.0 ± 36.2 s; Immobility time (mean ± SD, s) TST (ICR mice [3]; Table 2, oral administration for 8 days, n = 8, fluoxetine 10 mg/kg, SZ, PZ, XZ 21.2 mg/kg, control 118.6 ± 18.1): 69.5 ± 21.5 s |
| C[C@@H](CC[C@@]1(O)O[C@H]2C[C@H]3[C@@H]4CC[C@@H]5C[C@@H](O[C@@H]6O[C@H](CO)[C@H](O)[C@H](O)[C@H]6O[C@@H]6O[C@H](CO)[C@@H](O)[C@H](O)[C@H]6O)CC[C@]5(C)[C@H]4CC[C@]3(C)[C@H]2[C@@H]1C)CO[C@@H]1O[C@H](CO)[C@@H](O)[C@H](O)[C@H]1O [Timosaponin BII, timosaponin BII] | 119 | 1.09 ± 0.184 | 0.88 ± 0.16 | 0.25 | 302 ± 102 | 0.08 | 116 | 0.976 ± 0.254 | 0.277 ± 0.0484 | 0.25 | 35.8 | 10.88 | 72.1 ± 19.6 | 48.2 ± 23.1 | 196.9 ± 56.7 | 716.5 ± 90.4 | antidepressant effect (depressive rats): significant antidepressant effect; Cmax ([1]; cerebellum, cerebellum): 1170 ± 93.4 ng/g; Tmax ([1]; cerebellum, cerebellum): 0.25 h; half-life ([1]; cerebellum): 16.2 h; Cmax ([1]; hippocampus, hippocampus): 372 ± 154 ng/g; Tmax ([1]; hippocampus, hippocampus): 10 h; half-life ([1]; hippocampus): 27.4 h; ER (liver extraction ratio) ([1]; listed as timosaponin BII): 10.88% |
